Results as given in patent publication US5622498A, “Method for the treatment of periodontal disease by sustained delivery of a therapeutic agent to the periodontal pocket, composition of matter therefor and apparatus for the administration thereof” (priority 1993, dated 1997).

What was measured:
[1] = system: gram-positive and gram-negative organisms; conditions: cited from earlier work
[2] = dog, in vivo
Text: Pharmacokinetic investigation of minocycline-containing periodontal microcapsules was undertaken to produce a dosage form that could be administered to the periodontal pocket and that would yield minocycline concentrations exceeding the MIC's (0.05-1.56 mcg/ml) for organisms associated with periodontal disease for extended periods of time. Therefore, a study to evaluate four different minocycline periodontal formulations relative to determining minocycline levels in crevicular fluid was conducted in a dog model. The study utilized beagle dogs with surgically created "chronic" intrabony periodontal defects. […]
In sequence, the defects were created as follows: First, the lower fourth premolars were extracted, sockets were allowed to heal for one month, and dogs received a full mouth scaling and tooth cleaning. […] Dogs were monitored for an additional four weeks.
For evaluation of crevicular levels of minocycline, dogs were placed under general anesthesia, and the various formulations were administered into the periodontal pockets associated with the created defects. […] The strip was then removed, and the relative amount of fluid was determined by a Periotron 6000 instrument. […]
Samples of gingival fluid are collected as described above, and analyzed. […]

[3] = system: organisms associated with periodontal disease; conditions: cited from earlier work

In the case of `CN(C)c1ccc(O)c2c1C[C@H]1C[C@H]3[C@H](N(C)C)C(O)=C(C(N)=O)C(=O)[C@@]3(O)C(O)=C1C2=O` [minocycline, 7-dimethylamino-6-deoxy-6-demethyltetracycline], the antibacterial activity [1] is listed as “activity against a wide range of gram-positive and gram-negative organisms”, the “period for which minimum inhibitory concentrations (MIC's) can be achieved” value [2] is listed as “up to two” and the MIC [3] is listed as 0.05 to 1.56 µg/mL.
